US11840686B2, “Modulation of prekallikrein (PKK) expression” (Ionis Pharmaceuticals, Inc., priority 2013, dated 2023)
Several values for one entry are separate records, joined by “and”; a condition that tells them apart may be missing. Identical values can stand only once.

Tests used:
human PKK mRNA [1] = assay: Antisense inhibition of human PKK mRNA in HepaRG cells, 1,000 nM, MOE/deoxy/cEt oligonucleotides (Example 3); assay type: cell-based; conditions: HepaRG cells, 1,000 nM, electroporation, 24 hours
Summary of the method: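 Readout is percent PKK mRNA reduction against untreated controls, by real-time PCR (RTS3454) adjusted for total RNA via RIBOGREEN. Oligonucleotides, phosphorothioate gapmers of 16 nucleosides with cEt, MOE and deoxy sugars, were delivered at 1,000 nM by electroporation to 20,000 HepaRG cells/well for roughly 24 h.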

human PKK mRNA [2] = assay: Human PKK mRNA in liver of human KLKB1 transgenic mice (Example 7); assay type: in vivo
Summary of the method: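 Transgenic mice carrying a 37,390 bp human KLKB1 fragment dosed subcutaneously twice weekly for 3 weeks at 2.5, 5.0, 10 or 20 mg/kg/week; PBS controls. Liver harvested 48 h after the last dose. Human PKK mRNA measured by real-time PCR and expressed as % inhibition versus PBS.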

PKK protein [3] = assay: Plasma PKK protein levels in human KLKB1 transgenic mice (Example 7); assay type: in vivo; conditions: transgenic mice
Summary of the method: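 Human KLKB1 transgenic mice dosed subcutaneously twice weekly for 3 weeks with antisense oligonucleotides at 2.5, 5.0, 10 or 20 mg/kg/week. Plasma collected 48 hours after the final dose; PKK protein expressed as percent inhibition relative to PBS-treated controls.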

PKK mRNA = PKK mRNA in cynomolgus monkey liver (Example 8); assay type: in vivo; conditions: primates, Example 8
Summary of the method: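 Cynomolgus monkeys were dosed with human antisense oligonucleotides cross-reactive with the rhesus sequence. Liver RNA taken on day 87 or 88, 48 h after the last dose, was assayed by real-time PCR (primer probe set RTS3455) and normalized to cyclophilin. Values are percent PKK mRNA inhibition versus PBS control.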

PKK protein [4] = assay: PKK protein in cynomolgus monkey plasma by ELISA (Example 8); assay type: in vivo; conditions: 40 mg/kg sc
Experimental: Approximately 0.9 mL of blood was collected each time from all available animals at pre-dose, day 17, day 31, day 45, day 59, and day 73, and placed in tubes containing 3.2% sodium citrate. The tubes were centrifuged (3000 rpm for 10 min at room temperature) to obtain plasma. PKK protein levels were measured in the plasma by ELISA. The results are presented in Table 52, expressed as percentage inhibition compared to the PBS control levels.

[5] = Tolerability / clinical observation of cynomolgus monkeys (Example 8); assay type: in vivo, cynomolgus monkey; conditions: primates, Example 8
Experimental: Cynomolgus monkeys were treated with ISIS antisense oligonucleotides selected from studies described above. Antisense oligonucleotide efficacy and tolerability were evaluated. The human antisense oligonucleotides tested are cross-reactive with the rhesus genomic sequence (GENBANK Accession No. NW_001118167.1 truncated from nucleotides 2358000 to 2391000 and designated herein as SEQ ID NO: 18).
During the study period, the monkeys were observed a minimum of once daily for signs of illness or distress. Any animal experiencing more than momentary or slight pain or distress due to the treatment, injury or illness was promptly reported to the responsible veterinarian and the Study Director. Any animal in poor health or in a possible moribund condition was identified for further monitoring and possible euthanasia. […] The protocols described in the Example were approved by the Institutional Animal Care and Use Committee (IACUC).

[6] = Liver function markers in cynomolgus monkeys (Example 8); conditions: cynomolgus monkey plasma, 40 mg/kg sc
Experimental: (§1) Prior to the study, the monkeys were kept in quarantine for a 30-day period, during which the animals were observed daily for general health. The monkeys were 2-4 years old and weighed between 2 and 4 kg. Ten groups of four randomly assigned male cynomolgus monkeys each were injected subcutaneously with ISIS oligonucleotide or PBS. PBS solution or ISIS oligonucleotides at a dose of 40 mg/kg were administered initially with a loading regimen consisting of four doses on the first week of the study (days 1, 3, 5, and 7), followed by a maintenance regimen consisting of once weekly administration starting on Day 14 (weeks 2 to 13). Subcutaneous injections were performed in clock-wise rotations at 4 sites on the back; one site per dose. The injection sites were delineated by tattoo, while sedated using ketamine, and were separated by a minimum of 3 cm.
To evaluate the effect of ISIS oligonucleotides on hepatic function, the monkeys were fasted overnight. Approximately, 1.5 mL of blood samples were collected from all the study groups. Blood was collected in tubes without anticoagulant for serum separation. The tubes were kept at room temperature for a minimum of 90 min and then centrifuged at 3,000 rpm for 10 min. Levels of various liver function markers were measured using a Toshiba 120FR NEO chemistry analyzer (Toshiba Co., Japan).

[7] = Hematological parameters in cynomolgus monkeys (Example 8); conditions: cynomolgus monkey, 40 mg/kg sc, day 87 or day 88
Experimental: as §1
To evaluate any effect of ISIS oligonucleotides in cynomolgus monkeys on hematologic parameters, blood samples of approximately 1.2 mL of blood was collected pre-dose and on day 87 or day 88 from each of the available study animals in tubes containing K2-EDTA. Samples were analyzed for red blood cell (RBC) count, white blood cells (WBC) count, platelet count, hemoglobin content and hematocrit, using an ADVIA2120i hematology analyzer (SIEMENS, USA).

[8] = Urine protein/creatinine ratio in cynomolgus monkeys (Example 8); conditions: cynomolgus monkey, 40 mg/kg sc
Experimental: as §1
Kidney function was also assessed by urinalysis. Fresh urine from all animals was collected using a clean cage pan on wet ice. Food was removed overnight the day before fresh urine collection was done but water was supplied. The total protein and creatinine levels were measured using a Toshiba 120FR NEO automated chemistry analyzer (Toshiba Co., Japan) and the protein to creatinine ratio was calculated.

[9] = Kidney function: plasma BUN and creatinine in cynomolgus monkeys (Example 8); conditions: 40 mg/kg s.c.
Experimental: as §1
To evaluate the effect of ISIS oligonucleotides on kidney function, the monkeys were fasted overnight. Approximately, 1.5 mL of blood samples were collected from all the study groups. Blood was collected in tubes without anticoagulant for serum separation. The tubes were kept at room temperature for a minimum of 90 min and then centrifuged at 3,000 rpm for 10 min. Levels of BUN and creatinine were measured using a Toshiba 120FR NEO chemistry analyzer (Toshiba Co., Japan).

[10] = C-reactive protein and complement C3 levels in cynomolgus monkeys (Example 8); conditions: cynomolgus monkey plasma, 40 mg/kg sc
human PKK mRNA [11] = assay: Antisense inhibition of human PKK mRNA in HepaRG cells, 5,000 nM (Example 2); assay type: cell-based; conditions: HepaRG cells, 5,000 nM, electroporation, 24 hours
Summary of the method: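 Chimeric MOE gapmers with full phosphorothioate backbones were tested once at 5,000 nM in electroporated HepaRG cells. After about 24 hours, quantitative PCR measured PKK mRNA relative to untreated control cells.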

human PKK mRNA [12] = assay: Dose-dependent antisense inhibition of human PKK in HepaRG cells, 0.19-5.00 uM (Example 5); assay type: cell-based; conditions: 4 point dose response curve (0.19-5.0 μM), HepaRG cells, electroporation
Summary of the method: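 PKK mRNA knockdown was measured by real-time PCR (primer probe set RTS3454) about 16 h after electroporating 20,000 HepaRG cells per well with oligonucleotide at four doses from 0.19 to 5.00 μM. Levels were adjusted to RIBOGREEN-measured total RNA, and IC50 values were calculated.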

Row | Substance | inhibiting PKK mRNA and protein expression in primates (PKK mRNA) | PKK protein level reduction (%) in plasma relative to control levels (PKK protein [4]; Day 17) | PKK protein level reduction (%) in plasma relative to control levels (PKK protein [4]; Day 31) | PKK protein level reduction (%) in plasma relative to control levels (PKK protein [4]; Day 45) | PKK protein level reduction (%) in plasma relative to control levels (PKK protein [4]; Day 59) | PKK protein level reduction (%) in plasma relative to control levels (PKK protein [4]; Day 73) | tolerability in primates [5] | ALT [6] | AST [6] | Albumin [6] | HCT [7] | Hemoglobin [7] | Platelets [7] | RBC [7] | WBC [7] | Urine protein/creatinine ratio [8] | Plasma BUN [9] | Plasma Creatinine [9] | C3 (% of baseline) [10] | CRP [10] | other results
1 | mCes Ges Aks Tds Ads Tds mCds Ads Tds Gds Ads Tds Tds mCks mCks mCe [ISIS 548048] | effective for inhibiting PKK mRNA and protein expression | 90% | 93% | 95% | 95% | 95% | tolerable in primates | 47 IU/L | 44 IU/L | 4.2 g/dL | 44% | 13.4 g/dL | 393000 µL⁻¹ | 5.9e+06 µL⁻¹ | 11000 µL⁻¹ | 0.03 | 21.9 mg/dL | 0.9 mg/dL | 69 % of baseline | 0.2 mg/dL | mRNA inhibition (human PKK mRNA [1]): 84%; human PKK mRNA inhibition (human PKK mRNA [2]; transgenic mice, 2.5 mg/kg/week s.c. twice a week for 3 weeks): 7%; human PKK mRNA inhibition (human PKK mRNA [2]; transgenic mice, 5.0 mg/kg/week s.c. twice a week for 3 weeks): 77%; human PKK mRNA inhibition (human PKK mRNA [2]; transgenic mice, 10 mg/kg/week s.c. twice a week for 3 weeks): 72%; human PKK mRNA inhibition (human PKK mRNA [2]; transgenic mice, 20 mg/kg/week s.c. twice a week for 3 weeks): 80%; human PKK protein inhibition (PKK protein [3]; 2.5 mg/kg/week s.c. twice a week for 3 weeks): 23%; human PKK protein inhibition (PKK protein [3]; 5.0 mg/kg/week s.c. twice a week for 3 weeks): 70%; human PKK protein inhibition (PKK protein [3]; 10 mg/kg/week s.c. twice a week for 3 weeks): 89%; human PKK protein inhibition (PKK protein [3]; 20 mg/kg/week s.c. twice a week for 3 weeks): 98%
2 | mCes mCes mCes mCes mCes Tds Tds mCds Tds Tds Tds Ads Tds Ads Gds mCes mCes Aes Ges mCe [ISIS 546343] | effective for inhibiting PKK mRNA and protein expression | 56% | 74% | 69% | 70% | 70% | tolerable in primates | 76 IU/L | 49 IU/L | 4.3 g/dL | 42% | 12.6 g/dL | 373000 µL⁻¹ | 5.5e+06 µL⁻¹ | 14000 µL⁻¹ | 0.01 | 26.2 mg/dL | 1.0 mg/dL | 60 % of baseline | 0.2 mg/dL | inhibition of human PKK mRNA (human PKK mRNA [11]): 97% and 91%; IC50 (human PKK mRNA [12]): 400 nM; human PKK mRNA inhibition (human PKK mRNA [2]; transgenic mice, 2.5, 5.0, 10 or 20 mg/kg/week s.c., three values for four doses, dose not assignable): 46% and 66% and 86%
